Test results from patent publication US11596633B2, “SHP2 inhibitor compositions and methods for treating cancer” (Revolution Medicines, Inc., priority 2017, dated 2023).

Key:
KYSE-410 = assay: 3D cell viability (CTG); type: cell-based; details: Homo sapiens; KYSE-410, KRAS G12C, 3D culture
NCI-H2122 = assay: 3D cell viability (CTG); type: cell-based; details: Homo sapiens; NCI-H2122, KRAS G12C, 3D culture
LS180 = assay: 3D cell viability (CTG); type: cell-based; details: Homo sapiens; LS180, KRAS G12D, 3D culture
p-ERK1/2 in Calu-1 cells = assay: p-ERK AlphaLisa SureFire; type: cell-based, human; details: Calu-1 cells (KRAS G12C)
Experimental: Cells were plated at ˜20×10^3 cells per well and following overnight incubation were washed with serum-free media. Cells were then incubated for one hour with increasing concentrations of the test article in serum-free media containing 0.2% BSA prior to termination of the assay and measurement of pERK levels in cellular lysates by AlphaLisa SureFire Ultra kit conducted according to the manufacturer's instructions.

RAS-GTP in A375 cells = assay: RAS-GTP pulldown (Raf-RBD); type: cell-based; details: A375 (Class I BRAF V600E)
Experimental: (§1) To determine the effects of small molecules on levels of activated RAS-GTPase, cell lines of interest were cultured under standard 2D culture conditions. Cells were seeded and following overnight incubation incubated at 37° C. with vehicle (DMSO) or test article(s). After an appropriate incubation period, cells were washed and cell lysis buffer added to prepare a cell lysate. The levels of Ras-GTP in the lysates were determined using affinity purification of a Raf-RBD (Ras binding domain of Raf)/GTP-Ras complex. In one approach, the Pierce Active Ras Pulldown and Detection Kit was used. Briefly, clarified lysates (500 μg total protein, quantified by BCA) were mixed with glutathione resin, which had been preincubated with GST-Raf-RBD. The mixture was vortexed and incubated at 4° C. for 1 hour with gentle rocking. The resin was washed three times with lysis buffer and bound Ras-GTP eluted by addition of 2× reducing sample buffer. Eluted proteins were separated by SDS-PAGE using a 4-15% Tris-glycine gel (BioRad). Proteins were transferred to a nitrocellulose membrane for western blot using an anti-Ras antibody (Thermofisher, 1:200) and a Licor IRDye-800 anti-mouse secondary antibody (1:20,000). The Licor Odyssey CLx was used for visualization.

RAS-GTP in Cal-12T cells = assay: RAS-GTP pulldown (Raf-RBD); type: cell-based; details: Cal-12T (Class III BRAF G466V/+)
Experimental: as §1

RAS-GTP in MeWo cells = assay: RAS-GTP pulldown (Raf-RBD); type: cell-based; details: MeWo (NF1 LOF)
Experimental: as §1

[1] = tested on: RAS-GTP in NCI-H1666 cells; assay: RAS-GTP pulldown (Raf-RBD); type: cell-based; details: NCI-H1666 (Class III BRAF G466V/+)
Experimental: as §1

[2] = tested on: RAS-GTP in NCI-H508 cells; assay: RAS-GTP pulldown (Raf-RBD); type: cell-based; details: NCI-H508 (Class III BRAF G596R/+)
Experimental: as §1

KRAS mutant cell lines = assay: cells; details: read-out: CTG IC50 range, growth inhibition
Experimental: To evaluate cell viability in 3D culture, cells in logarithmic growth phase were plated in growth medium containing 0.65% methylcellulose at an optimum seeding density. Cells were incubated overnight prior to treatment with different concentrations of the test article. Cells were cultured for an additional seven days and cell viability assessed using the CellTiterGlo™ (CTG) reagent, according to the manufacturer's instructions. In some instances, cells were grown in 3D culture as spheroids. Briefly, 2500 cells/well were seeded in round bottom ultra-low attachment 96-well plates (Corning) in growth media supplemented with 10% fetal bovine serum and 1% penicillin/streptomycin, and allowed to form spheroids for 72 hours at 37° C. in 5% CO2. […] Following drug exposure for five days, cell viability in spheroids was determined using the CellTiter-Glo assay kit. H1838 cells were seeded at 5×10^3 cells per well of a 12-well plate. After one day in culture, cells were treated with the test article, which was then replenished every three days.

NCI-H1666 = assay: 3D proliferation (CTG); type: cell-based; details: NCI-H1666 (Class III BRAF G466V/+)
[3] = tested on: caspase 3/7 activity in NCI-H358 cells; assay: Activated Caspase 3/7 assay in spheroids; type: cell-based, human; details: NCI-H358 spheroid cultures
Experimental: Activated Caspase 3/7 Assay in Spheroids. […] Immediately after seeding, cells were spun down at 1000 RPM for 5 minutes, and incubated at 37° C. in 5% CO2 for five days to allow for spheroid formation. Spheroid formation was confirmed visually. […] Caspase 3/7 activity was measured using the Caspase-Glo 3/7 Assay System (Promega), following the manufacturer's instructions. After addition of Caspase-Glo reagent, the well contents were pipetted several times and incubated at room temperature in the dark for 45 minutes to allow thorough cell lysis. 50 μL of the lysate/reaction was transferred to an opaque white 96-well ½ area plates (Perkin Elmer). Luminescence was read in an EnVision Multilabel Plate Reader (Perkin Elmer). Assay data was plotted using Prism 7 (GraphPad) software.

| Compound | IC50 (KYSE-410) [µM] | IC50 (NCI-H2122) [µM] | IC50 (LS180) [µM] | inhibition of p-ERK1/2 levels (p-ERK1/2 in Calu-1 cells) | RAS-GTP levels (RAS-GTP in A375 cells) | RAS-GTP levels (RAS-GTP in Cal-12T cells) | RAS-GTP levels (RAS-GTP in MeWo cells) | RAS-GTP levels [1] | RAS-GTP levels [2] | IC50 (KRAS mutant cell lines) [µM] | proliferation (NCI-H1666) | caspase 3/7 activity [3] |
| --- | --- | --- | --- | --- | --- | --- | --- | --- | --- | --- | --- | --- |
| Nc1nc(N2CCC3(CCC[C@H]3N)CC2)cnc1Sc1ccnc(Cl)c1Cl [Compound A] | 0.1 | 5.9 | > 10 |  |  |  |  |  |  |  |  |  |
| Cc1nc(N2CCC3(CC2)CO[C@@H](C)[C@H]3N)c(CO)nc1-c1cccc(Cl)c1Cl [Compound B] |  |  |  | concentration-dependent inhibition | failed to suppress | suppression | downregulation | suppression | suppression | 0.4 to 7.87 | suppression | robust caspase 3/7 activation |
